Reference: patent US20250163032A1, “NOVEL MOLECULES AS INHIBITORS OF DNA DAMAGE REPAIR PATHWAY” (VRise Therapeutics, Inc., priority 2023, published 2025)

Tests used:
USP1/UAF1 = USP1/UAF1 (Homo sapiens, UniProt O94782); assay: USP1/UAF 1 assay (ubiquitin-rhodamine110 fluorometric deubiquitinase assay); assay type: biochemical; conditions: for IC50: 1 nM USP1/UAF1, 150 nM Ub-Rho, read-out: Biochemical assay IC50; for inhibition at 1 µM: read-out: Biochemical assay % inhibition @1 μM; for inhibition at 10 µM: read-out: Biochemical assay % inhibition @10 μM
Method: Test-1: USP1/UAF 1 Assay:
Deubiquitinase activity of USP1/UAF1 was monitored in a fluorometric assay using ubiquitin-rhodamine110 as substrate. Briefly, enzymatic reactions were conducted in an assay buffer composed of 50 mM HEPES, pH 7.8, 0.5 mM EDTA, 100 mM NaCl, 1 mM TCEP, 0.1 mg/mL BSA, and 0.01% Tween-20 that contained 1 nM USP1/UAF1. Compounds were tested at desired concentrations. The plates were incubated for 15 min to attain equilibrium, and then the enzymatic reaction was initiated by dispensing 150 nM Ub-Rho solution. Fluorescence measurement was performed in a high throughput CCD imager, where kinetic measurements of rhodamine fluorescence were acquired using a 480 nm excitation/540 nm emission filter set. The change in fluorescence intensity over a 5-minute reaction period (typically associated with less than 10% substrate conversion) was normalized against no-inhibitor and no-enzyme controls and the resulting percent inhibition data were fitted to a sigmoidal dose response using a four-parameter Hill equation. Data was be analysed and percent inhibition and/or IC50 for each test compound is calculated accordingly.

NCI-H1792 = assay: Cell viability assay (MTT assay), NCI-H1792; assay type: cell-based; conditions: Homo sapiens, tested at 10 uM, 168 hours (Test-3)
Method: Test-3: Cell Viability Assay (MTT Assay):
Cell viability assay was carried out using 10% FBS supplemented media. Cells were seeded at desired density in 96 well plate and incubated in a humidified CO2 incubator. After 24 hours of plating, test compounds at desired concentration range were added to the plates and incubated in the CO2 incubator for 168 hours. Post 168 hrs treatment, 12.5 μL of MTT was added to all wells including DMSO control. MTT treated plates were incubated further for 3 hours and MTT crystals were dissolved using 125 μL of DMSO. Absorbance was read on a BIO-RAD iMark Microplate plate reader at a wavelength of 570 nm. Data was analysed and percent inhibition (IC50) due to the test compound compared to the control was calculated using GraphPad Prism.

MD-MBA-436 = assay: Cell viability assay (CTG assay); assay type: cell-based, human; conditions: Homo sapiens, 7th day
Method: Test 5: Cell Viability Assay (CTG Assay):
Growth inhibition assays was carried out using […] supplemented media. Cells were seeded at a desired concentration of 1000-6,000 cells/well in a well plate with desired number of wells. Test compounds at a desired concentration range were added after 24 hours. Growth was assessed using the Cell Titer-Glo (CTG, Cell Signaling) for measuring reduction at 7th day after the addition of test compound chemiluminescence values were read by a plate reader. Data was be analysed and percent inhibition and/or IC50 for each test compound is calculated accordingly.

[1] = Metabolic stability, mouse liver microsomes; assay type: in vitro ADME; conditions: pH 7.4, 1 μM test item, 1 mM NADPH, 60 minutes
Method: (§1) Test-8: Metabolic Stability
(§2) Metabolic stability studies were conducted using mouse, rat, and human liver microsomes. The protocol for the studies with mouse and human liver microsomes (Gibco-Thermo) is provided below.
(§3) In brief, 0.25 mg protein was preincubated in phosphate buffer (pH˜7.4) for 5 min at 37° C. and then added with 1 μM test item followed by addition of 1 mM NADPH (cof actor) and incubated further over a period 60 minutes in duplicate. The reaction mixture was terminated with acetonitrile containing an internal standard and centrifuged further to analyse the test item remaining in the supernatant by LC-MS/MS at different intervals. The percent parent compound remaining was calculated in comparison with similar samples terminated at 0 minutes.

[2] = Metabolic stability, human liver microsomes; assay type: in vitro ADME; conditions: pH 7.4, 1 μM test item, 1 mM NADPH, 60 minutes
Method: as §1, §2, §3

Sequence of USP1/UAF1 (O94782 whole entry): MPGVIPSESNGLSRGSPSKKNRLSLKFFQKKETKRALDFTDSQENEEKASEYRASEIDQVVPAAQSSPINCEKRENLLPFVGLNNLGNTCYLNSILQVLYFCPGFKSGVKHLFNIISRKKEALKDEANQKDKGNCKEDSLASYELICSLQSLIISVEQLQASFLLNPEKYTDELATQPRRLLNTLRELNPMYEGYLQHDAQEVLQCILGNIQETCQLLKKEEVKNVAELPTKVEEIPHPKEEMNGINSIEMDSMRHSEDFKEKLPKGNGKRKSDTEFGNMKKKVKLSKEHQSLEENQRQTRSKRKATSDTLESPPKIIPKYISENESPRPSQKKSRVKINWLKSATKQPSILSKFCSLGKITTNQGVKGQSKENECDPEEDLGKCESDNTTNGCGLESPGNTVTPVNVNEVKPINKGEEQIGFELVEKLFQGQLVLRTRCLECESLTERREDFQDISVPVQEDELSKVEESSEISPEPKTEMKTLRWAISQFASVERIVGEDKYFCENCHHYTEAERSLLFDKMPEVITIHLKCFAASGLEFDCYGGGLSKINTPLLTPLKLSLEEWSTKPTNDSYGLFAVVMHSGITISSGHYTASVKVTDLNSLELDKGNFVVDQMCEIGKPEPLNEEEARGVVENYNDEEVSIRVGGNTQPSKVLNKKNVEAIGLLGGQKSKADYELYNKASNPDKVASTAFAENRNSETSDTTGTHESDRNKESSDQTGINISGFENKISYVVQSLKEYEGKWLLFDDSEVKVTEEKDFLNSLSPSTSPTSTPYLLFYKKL
Sequence of USP1/UAF1 (Q8TAF3 whole entry partner): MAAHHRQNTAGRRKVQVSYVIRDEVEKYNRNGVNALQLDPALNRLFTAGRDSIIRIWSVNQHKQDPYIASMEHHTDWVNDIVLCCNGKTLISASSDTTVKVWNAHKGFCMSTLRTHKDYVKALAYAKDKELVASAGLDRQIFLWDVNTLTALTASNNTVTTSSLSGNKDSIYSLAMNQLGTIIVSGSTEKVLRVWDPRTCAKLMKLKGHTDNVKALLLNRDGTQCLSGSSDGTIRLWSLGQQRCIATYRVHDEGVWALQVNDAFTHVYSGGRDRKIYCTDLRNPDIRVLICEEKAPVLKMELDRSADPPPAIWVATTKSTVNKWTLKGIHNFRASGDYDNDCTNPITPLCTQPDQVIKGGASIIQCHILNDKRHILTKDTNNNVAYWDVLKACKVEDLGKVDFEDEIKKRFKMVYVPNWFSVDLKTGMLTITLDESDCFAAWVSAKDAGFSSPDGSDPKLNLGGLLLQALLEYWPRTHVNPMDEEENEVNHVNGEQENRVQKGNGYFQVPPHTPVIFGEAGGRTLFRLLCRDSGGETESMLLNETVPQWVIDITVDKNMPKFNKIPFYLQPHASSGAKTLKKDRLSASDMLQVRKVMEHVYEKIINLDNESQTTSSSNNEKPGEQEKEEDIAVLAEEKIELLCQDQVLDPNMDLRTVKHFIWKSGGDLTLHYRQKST

| IC50 (USP1/UAF1) [nM] | half-life at 1 μM [1] [min] | half-life at 1 μM [2] [min] | inhibition at 1 µM (USP1/UAF1) [%] | inhibition at 10 µM (USP1/UAF1) [%] | Compound | inhibition at 10 µM (NCI-H1792) [%] | IC50 (MD-MBA-436) [nM] | inhibition at 10 µM (MD-MBA-436) [%] |
| --- | --- | --- | --- | --- | --- | --- | --- | --- |
| 50 to 100 | ≥ 230 | ≥ 700 | – | – | COc1ncnc(C2CC2)c1-c1nc(NCc2ccc(-c3nc(C(F)(F)F)cn3C)cc2)c2[nH]cnc2n1 [Example 16, 2-(4-cyclopropyl-6-methoxypyrimidin-5-yl)-N-(4-(1-methyl-4-(trifluoromethyl)-1H-imidazol-2-yl)benzyl)-7H-purin-6-amine] | – | – | 50 to 75 |
| 100 to 1000 | – | 52.7 | – | – | COc1ncnc(C2CC2)c1-c1nc2c(c(NCc3ccc(-c4nc(C(F)(F)F)cn4C)cc3)c1C#N)CCC2 [Example 21, 2-(4-cyclopropyl-6-methoxypyrimidin-5-yl)-4-((4-(1-methyl-4-(trifluoromethyl)-1H-imidazol-2-yl)benzyl)amino)-6,7-dihydro-5H-cyclopenta[b]pyridine-3-carbonitriles] | – | – | 50 to 75 |
| – | 22.6 | 227 | – | – | COc1ncnc(C2CC2)c1-c1nc2c(c(OCc3ccc(-c4nc(C(F)(F)F)cn4C)cc3)n1)CCC2 [Example 24, 2-(4-cyclopropyl-6-methoxypyrimidin-5-yl)-4-((4-(1-methyl-4-(trifluoromethyl)-1H-imidazol-2-yl)benzyl)oxy)-6,7-dihydro-5H-cyclopenta[d]pyrimidine] | – | – | 75 to 100 |
| – | 284 | 683 | – | > 75 | COc1ncnc(C2CC2)c1-c1nc(OCc2ccc(-c3nc(C(F)(F)F)cn3C)cc2)c2[nH]cnc2n1 [Example 26, 2-(4-cyclopropyl-6-methoxypyrimidin-5-yl)-6-((4-(1-methyl-4-(trifluoromethyl)-1H-imidazol-2-yl)benzyl)oxy)-7H-purine] | – | – | – |
| – | – | – | – | > 75 | COc1ncccc1-c1nc(NCc2ccc(-c3nc(C(F)(F)F)cn3C)cc2)c2[nH]cnc2n1 [Example 32, 2-(2-methoxypyridin-3-yl)-N-(4-(1-methyl-4-(trifluoromethyl)-1H-imidazol-2-yl)benzyl)-7H-purin-6-amine] | 50 to 75 | – | – |
| – | 10.1 | – | – | – | COc1ncnc(C2CC2)c1-c1nc(NCc2ccc(-c3cccnc3)cc2)c2[nH]cnc2n1 [Example 76, 2-(4-cyclopropyl-6-methoxypyrimidin-5-yl)-N-(4-(pyridin-3-yl)benzyl)-7H-purin-6-amine] | 25 to 50 | – | – |
| – | 7.58 | 30.3 | – | – | Cc1cnc(-c2ccccc2C(C)C)nc1NCc1ccc(-n2ccnn2)cc1 [ML323, reference compound] | – | – | – |

Continued, compound first:

| Compound | IC50 (USP1/UAF1) [nM] | half-life at 1 μM [1] [min] | half-life at 1 μM [2] [min] | inhibition at 1 µM (USP1/UAF1) [%] | inhibition at 10 µM (USP1/UAF1) [%] | inhibition at 10 µM (NCI-H1792) [%] | IC50 (MD-MBA-436) [nM] | inhibition at 10 µM (MD-MBA-436) [%] |
| --- | --- | --- | --- | --- | --- | --- | --- | --- |
| COc1ncnc(C2CC2)c1-c1nc2c(c(NCc3ccc(-c4nc(C(F)(F)F)cn4C)cc3)n1)CCC2 [Example 1, 2-(4-cyclopropyl-6-methoxypyrimidin-5-yl)-N-(4-(1-methyl-4-(trifluoromethyl)-1H-imidazol-2-yl)benzyl)-6,7-dihydro-5H-cyclopenta[d]pyrimidin-4-amine] | 50 to 100 | 89.6 | 108 | – | – | 25 to 50 | < 50 | – |
| COc1ncnc(C2CC2)c1-c1nc(NCc2ccc(-c3nc(C(F)(F)F)cn3C)cc2)c2c(c1C#N)CCC2 [Example 2, 3-(4-cyclopropyl-6-methoxypyrimidin-5-yl)-1-((4-(1-methyl-4-(trifluoromethyl)-1H-imidazol-2-yl)benzyl)amino)-6,7-dihydro-5H-cyclopenta[c]pyridine-4-carbonitrile] | 100 to 1000 | – | 20.4 | – | – | – | – | 50 to 75 |
| CC(C)c1ccccc1-c1nc2c(c(NCc3ccc(-c4nc(C(F)(F)F)cn4C)cc3)n1)CCC2 [Example 3, 2-(2-isopropylphenyl)-N-(4-(1-methyl-4-(trifluoromethyl)-1H-imidazol-2-yl)benzyl)-6,7-dihydro-5H-cyclopenta[d]pyrimidin-4-amine] | < 50 | 14.4 | 14 | – | – | – | < 50 | – |
| CC(C)c1ccccc1-c1nc(NCc2ccc(-c3nc(C(F)(F)F)cn3C)cc2)c2c(c1C#N)CCC2 [Example 4, 3-(2-isopropylphenyl)-1-((4-(1-methyl-4-(trifluoromethyl)-1H-imidazol-2-yl)benzyl)amino)-6,7-dihydro-5H-cyclopenta[c]pyridine-4-carbonitrile] | 50 to 100 | 7.71 | 7.13 | – | – | – | ≥ 1000 | – |
| COc1ncnc(C2CC2)c1-c1nc(NCc2ccc(-c3nc(C(F)(F)F)cn3C)cc2)c2cccn2n1 [Example 6, 2-(4-cyclopropyl-6-methoxypyrimidin-5-yl)-N-(4-(1-methyl-4-(trifluoromethyl)-1H-imidazol-2-yl)benzyl)pyrrolo[2,1-f][1,2,4]triazin-4-amine] | < 50 | ≥ 30 | ≥ 300 | – | – | 50 to 75 | < 50 | – |
| COc1ncnc(C2CC2)c1-c1nc2c(c(NCc3ccc(-c4nc(C(F)(F)F)cn4C(C)C)cc3)n1)CCC2 [Example 10, 2-(4-cyclopropyl-6-methoxypyrimidin-5-yl)-N-(4-(1-isopropyl-4-(trifluoromethyl)-1H-imidazol-2-yl)benzyl)-6,7-dihydro-5H-cyclopenta[d]pyrimidin-4-amine] | < 50 | 47 | 134 | – | – | – | < 50 | – |
| COc1ncnc(C2CC2)c1-c1nc2c(c(N(Cc3ccc(-c4nc(C(F)(F)F)cn4C)cc3)C(N)=O)n1)CCC2 [Example 12, 1-(2-(4-cyclopropyl-6-methoxypyrimidin-5-yl)-6,7-dihydro-5H-cyclopenta[d]pyrimidin-4-yl)-1-(4-(1-methyl-4-(trifluoromethyl)-1H-imidazol-2-yl)benzyl)urea] | – | 40.2 | 9 | > 75 | – | – | – | 50 to 75 |
| CC(C)c1ccccc1-c1nc2c(c(N(Cc3ccc(-c4nc(C(F)(F)F)cn4C(C)C)cc3)C(=O)N(C)C)n1)CCC2 [Example 14, 1-(4-(1-isopropyl-4-(trifluoromethyl)-1H-imidazol-2-yl)benzyl)-1-(2-(2-isopropylphenyl)-6,7-dihydro-5H-cyclopenta[d]pyrimidin-4-yl)-3,3-dimethylurea] | – | – | 3.21 | 25 to 50 | – | – | – | – |
| COc1ncccc1-c1nc(NCc2ccc(-c3nc(C(F)(F)F)cn3C)cc2)c2ncn(C3CCCCO3)c2n1 (centres unmarked) [Example 31, 2-(2-methoxypyridin-3-yl)-N-(4-(1-methyl-4-(trifluoromethyl)-1H-imidazol-2-yl)benzyl)-9-(tetrahydro-2H-pyran-2-yl)-9H-purin-6-amine] | – | – | – | – | – | 25 to 50 | – | – |
| COc1ccncc1-c1nc(NCc2ccc(-c3nc(C(F)(F)F)cn3C)cc2)c2ncn(C3CCCCO3)c2n1 (centres unmarked) [Example 33, 2-(4-methoxypyridin-3-yl)-N-(4-(1-methyl-4-(trifluoromethyl)-1H-imidazol-2-yl)benzyl)-9-(tetrahydro-2H-pyran-2-yl)-9H-purin-6-amine] | – | – | – | – | – | 50 to 75 | – | – |
| COc1ncnc(C2CC2)c1-c1nc(NCc2ccc(-c3ccc(F)cn3)cc2)c2[nH]cnc2n1 [Example 77, 2-(4-cyclopropyl-6-methoxypyrimidin-5-yl)-N-(4-(5-fluoropyridin-2-yl)benzyl)-7H-purin-6-amine] | – | – | – | – | – | 50 to 75 | – | – |
